The values below are quoted from earlier work in patent US12377109B2, “Formulation and noncovalent stabilization of olivetolic acid derivatives” (MINGOWOOD PHARMACAL LLC, priority 2020, dated 2025).

For data set [1], the system named is lithium chloride- and cisplatin-induced vomiting. The settings on record: mice and shrews.
The test system of data set [2] is MDA-MB-231 human breast cancer cells. The settings on record: MDA-MB-231 cells.
The conditions of data set [3]: for first-order rate constant k for decarboxylation: 100° C.
Where [4] appears, read: 30° C., neat substances and solutions, reviewed studies.
Where [5] appears, read: 40° C., neat substances and solutions, reviewed studies.

Read-outs that look alike come from different tables or passages of the source.

The pKa is the negative logarithm of the acid dissociation constant. Take `C=C(C)C1CCC(C)=CC1c1c(O)cc(CCCCC)c(C(=O)O)c1O` (stereo not drawn) [CBDA, 3-p-mentha-1,8-dien-3-yl-6-pentyl-beta-resorcylic acid]: the pKa is on record as 3.4. For the same compound, the “lowest dose suppressing vomiting” value in data set [1] is 0.01 mg/kg. For the same compound, in data set [2], the “effect on cell migration” value was “inhibits migration”. Besides, in data set [3] (25° C., extrapolated from Wang's data), the “time to 10% degradation” value is recorded as “approximately 3.7 weeks”. Besides, the half-life in data set [3] (30° C., calculated from Citti et al.) is 4.5 weeks. The half-life in data set [3] (30° C., calculated from Wang et al.) is listed as 11.6 weeks. Also, in data set [3] (30° C., estimated for the Cerilliant product), the half-life result was “about 12 weeks”. Besides, the half-life entry in data set [3] (setting [4]) is given as “about 12 weeks”. Moreover, the decrease in potency in data set [3] (40° C. over 4 weeks, Cerilliant standard solution in acetonitrile) is on record as 69.8%. Further, the half-life in data set [3] (40° C., from Wang et al. parameters) is 4.06 weeks. Also, the half-life entry in data set [3] (setting [5]) is “about 4 weeks”. Also, in data set [3] (80° C., Wang et al.), the decay constant is 5.35e-05 s⁻¹. For the same compound, the half-life in data set [3] (80° C., Wang's estimate) was 3.6 h. The half-life entry in data set [3] (80° C., in hemp oil as extracted, Citti et al.) is “approximately 4.9 hours”. Further, the “first-order rate constant k for decarboxylation” value in data set [3] is reported as 4.13×10^−4. Further, in data set [3] (Wang et al.), the “activation energy of degradation” value was 27.5 kcal/mol and the “prefactor in the expression for the degradation rate constant” value is 2e+12 s⁻¹. In data set [3] (in hemp oil, Citti et al.), the “activation energy of degradation” value is 21.4 kcal/mol and the prefactor was 6.9e+08 L/s.
As to `CCCCCc1cc(O)c(C/C=C(\C)CCC=C(C)C)c(O)c1C(=O)O` [CBGA, 3-[(2E)-3,7-dimethylocta-2,6-dienyl]-2,4-dihydroxy-6-pentylbenzoic acid], the pKa is given as 2.9.
Regarding `CCCCCc1cc2c(c(O)c1C(=O)O)[C@@H]1C=C(C)CC[C@H]1C(C)(C)O2` [THCA, (6aR,10aR)-1-hydroxy-6,6,9-trimethyl-3-pentyl-6a,7,8,10a-tetrahydrobenzo[c]chromene-2-carboxylic acid], the half-life entry in data set [3] (setting [4]) was “about 12 weeks”; in data set [3] (setting [5]), “about 4 weeks”. Moreover, the loss result in data set [3] (40% and 90% ethanol tinctures, 4° C., dark, 6 months, Peschel) is given as “over 50%”. Also, the “first-order rate constant k for decarboxylation” value in data set [3] is listed as 4.93×10^−4.
